According to patent US11154529B2, “Phosphaplatin liquid formulations” (Phosplatin Therapeutics Inc., priority 2016, dated 2021):

Assay: Ready-to-use formulation stability at 2-8° C., 5 mg/mL (R,R)-pyrodach-2 in 10 mM Potassium Phosphate Buffer at pH 7.4, 10 mL vials
Assay type: physicochemical
Description: A scalable and commercially viable process for the manufacture of a ready-to-use formulation of (R,R)-pyrodach-2 in 10 mM buffer adjusted to a pH of 7.0-7.5 comprises the steps of: a) preparing a 10 mM aqueous solution of buffer; b) adding sufficient hydroxide base to effect neutralization of the added (R,R)-pyrodach-2 to reach a pH of about 7; c) adding (R,R)-pyrodach-2 and allowing it to dissolve; d) if necessary adding additional hydroxide to adjust the pH into a range of about 7.0-7.5; and e) filtering the solution under sterile conditions, filling the solution into glass vials, and covering it with a stopper and/or a cap. Stability data on two large batches of 5 mg/mL (R,R)-pyrodach-2 in 10 mM potassium phosphate buffer were generated. One such batch at pH=7.2 was evaluated at both 25° C./60% RH and refrigerated (2-8° C.) conditions, with data summarized in Table 4 and Table 5, respectively. […] Similar observations have been made for the ready-to-use liquid formulation at pH7.4, as illustrated in Table 6 and Table 7.
• Transfer 4564.6 mg±0.5 mg of potassium phosphate dibasic, trihydrate to a 2-L volumetric flask. • Fill flask to approximately 75% volume with water, swirl as needed to dissolve all solids. • Volumetrically transfer 32.0 mL of 1N KOH to flask. • Dilute flask to volume with water and mix well. • Record pH of final solution. This is the diluent. • Transfer 7653.1 mg±0.5 mg of (R,R)-pyrodach-2 to a compounding vessel. • Transfer 1500 mL of the diluent to the vessel and stir to dissolve solids. • Record pH of final solution. • Pass entire solution through a 0.22 μm sterile filter membrane into a sterile collection vessel. • Calculate (R,R)-pyrodach-2 solution concentration
To a […] glass beaker equipped with mechanical mixer was add 24645.5 g of sterile water for injection. With agitation 47.03 gm of dibasic potassium phosphate USP was added and the solids allowed to dissolve. To the stirred solution was added 253.8 gm of 1.00 N potassium hydroxide. Sterile water for injection USP (900.0 gm) was used as a rinse to facilitate both additions. With vigorous agitation, (R,R)-pyrodach-2 (201.87 gm) was slowly added and agitation continued until all of the solids dissolved. Sterile water for injection USP (900.0 gm) was used as a rinse to facilitate the addition. The pH was determined to be 6.7. A total of 85 mL of 1.00 N potassium hydroxide was added in 5.0 mL aliquots to adjust the pH to 7.3. The solution was sterile filtered through 0.22μ Millipore Millipack filter and aseptically filled, 10 ml top a vial in 10 mL in 10 cc Wheaton clear molded vails, stoppered with a 20 mm stopper and crimp seal capped.

O=P1(O)OP(=O)(O)[O][Pt]2([NH][C@@H]3CCCC[C@H]3[NH]2)[O]1 (stereo partly drawn) [(R,R)-pyrodach-2, (R,R)-trans-1,2-cyclohexanediamine-(dihydrogenpyrophosphato)platinum(II)]
(DACH) Pt-diaquo (~RRT 0.3) (1 Month): 0.15%
(DACH) Pt-monoaquo (~RRT 0.7) (1 Month): 1.04%
Assay (Potency) (1 Month): 98.7%
PT-112 Dimer (~RRT 4.0) (1 Month): 0.33%
RRT 0.50 (1 Month): 0.06%
RRT 0.56 (1 Month): 0.10%
RRT 0.68 (1 Month): 0.19%
RRT 0.86 (1 Month): 0.05%
RRT 3.1-3.2 (1 Month): 0.13%
Total Related Substances (1 Month): 2%
pH (1 Month): 7.4
(DACH) Pt-diaquo (~RRT 0.3) (3 Month): 0.14%
(DACH) Pt-monoaquo (~RRT 0.7) (3 Month): 0.92%
Assay (Potency) (3 Month): 99.7%
PT-112 Dimer (~RRT 4.0) (3 Month): 0.37%
RRT 0.50 (3 Month): 0.06%
RRT 0.56 (3 Month): 0.12%
RRT 0.68 (3 Month): 0.11%
RRT 3.1-3.2 (3 Month): 0.25%
Total Related Substances (3 Month): 2%
pH (3 Month): 7.4
(DACH) Pt-diaquo (~RRT 0.3) (6 Month): 0.17%
(DACH) Pt-monoaquo (~RRT 0.7) (6 Month): 0.28%
Assay (Potency) (6 Month): 98.2%
PT-112 Dimer (~RRT 4.0) (6 Month): 0.36%
RRT 0.46 (6 Month): 0.06%
RRT 0.50 (6 Month): 0.18%
RRT 0.56 (6 Month): 0.06%
RRT 0.68 (6 Month): 0.16%
RRT 0.86 (6 Month): 0.05%
RRT 3.1-3.2 (6 Month): 0.38%
Total Related Substances (6 Month): 2%
pH (6 Month): 7.4
Particulate Matter (Light Obscuration) (6 Month, first value): 83 particles particles per container
Particulate Matter (Light Obscuration) (6 Month, second value): 1 particles particles per container
(DACH) Pt-diaquo (~RRT 0.3) (9 Month): 0.14%
(DACH) Pt-monoaquo (~RRT 0.7) (9 Month): 0.81%
Assay (Potency) (9 Month): 100.2%
PT-112 Dimer (~RRT 4.0) (9 Month): 0.33%
RRT 0.46 (9 Month): 0.05%
RRT 0.50 (9 Month): 0.18%
RRT 0.56 (9 Month): 0.07%
RRT 0.68 (9 Month): 0.08%
RRT 0.86 (9 Month): 0.05%
RRT 3.1-3.2 (9 Month): 0.39%
RRT 3.58 (9 Month): 0.07%
Total Related Substances (9 Month): 2%
pH (9 Month): 7.4
(DACH) Pt-diaquo (~RRT 0.3) (12 Month): 0.12%
(DACH) Pt-monoaquo (~RRT 0.7) (12 Month): 0.96%
Assay (Potency) (12 Month): 98.7%
PT-112 Dimer (~RRT 4.0) (12 Month): 0.34%
RRT 0.50 (12 Month): 0.15%
RRT 0.56 (12 Month): 0.16%
RRT 0.68 (12 Month): 0.11%
RRT 0.86 (12 Month): 0.05%
RRT 3.1-3.2 (12 Month): 0.48%
Total Related Substances (12 Month): 2%
pH (12 Month): 7.4
Particulate Matter (Light Obscuration) (12 Month, first value): 124 particles per container
Particulate Matter (Light Obscuration) (12 Month, second value): 6 particles particles per container
(DACH) Pt-diaquo (~RRT 0.3) (15 Month): 0.14%
(DACH) Pt-monoaquo (~RRT 0.7) (15 Month): 0.94%
Assay (Potency) (15 Month): 98.0%
PT-112 Dimer (~RRT 4.0) (15 Month): 0.34%
RRT 0.50 (15 Month): 0.16%
RRT 0.56 (15 Month): 0.17%
RRT 0.68 (15 Month): 0.12%
RRT 0.86 (15 Month): 0.06%
RRT 3.1-3.2 (15 Month): 0.59%
RRT 3.58 (15 Month): 0.07%
Total Related Substances (15 Month): 3%
pH (15 Month): 7.4
(DACH) Pt-diaquo (~RRT 0.3) (18 Month): 0.13%
(DACH) Pt-monoaquo (~RRT 0.7) (18 Month): 0.76%
Assay (Potency) (18 Month): 97.5%
PT-112 Dimer (~RRT 4.0) (18 Month): 0.33%
RRT 0.46 (18 Month): 0.09%
RRT 0.50 (18 Month): 0.26%
RRT 0.56 (18 Month): 0.06%
RRT 0.68 (18 Month): 0.08%
RRT 0.86 (18 Month): 0.05%
RRT 3.1-3.2 (18 Month): 0.58%
RRT 3.58 (18 Month): 0.10%
Total Related Substances (18 Month): 2%
pH (18 Month): 7.4
(DACH) Pt-diaquo (~RRT 0.3) (21 Month): 0.12%
(DACH) Pt-monoaquo (~RRT 0.7) (21 Month): 1.07%
Assay (Potency) (21 Month): 97.4%
PT-112 Dimer (~RRT 4.0) (21 Month): 0.35%
RRT 0.46 (21 Month): 0.07%
RRT 0.50 (21 Month): 0.23%
RRT 0.56 (21 Month): 0.12%
RRT 0.68 (21 Month): 0.14%
RRT 0.86 (21 Month): 0.05%
RRT 3.1-3.2 (21 Month): 0.67%
RRT 3.58 (21 Month): 0.10%
Total Related Substances (21 Month): 3%
pH (21 Month): 7.4
(DACH) Pt-diaquo (~RRT 0.3) (24 Month): 0.11%
(DACH) Pt-monoaquo (~RRT 0.7) (24 Month): 0.93%
Assay (Potency) (24 Month): 96.5%
PT-112 Dimer (~RRT 4.0) (24 Month): 0.33%
RRT 0.46 (24 Month): 0.08%
RRT 0.50 (24 Month): 0.25%
RRT 0.56 (24 Month): 0.12%
RRT 0.68 (24 Month): 0.11%
RRT 0.86 (24 Month): 0.06%
RRT 3.1-3.2 (24 Month): 0.65%
RRT 3.58 (24 Month): 0.14%
Total Related Substances (24 Month): 3%
pH (24 Month): 7.4
(DACH) Pt-diaquo (~RRT 0.3) (Initial): 0.16%
(DACH) Pt-monoaquo (~RRT 0.7) (Initial): 0.84%
Assay (Potency) (Initial): 98.1%
PT-112 Dimer (~RRT 4.0) (Initial): 0.34%
RRT 0.50 (Initial): 0.06%
RRT 0.56 (Initial): 0.08%
RRT 0.68 (Initial): 0.09%
RRT 3.1-3.2 (Initial): 0.11%
Total Related Substances (Initial): 2%
pH (Initial): 7.4
Particulate Matter (Light Obscuration) (Initial, first value): 30 particles particles per container
Particulate Matter (Light Obscuration) (Initial, second value): 11 particles particles per container
